Like-named read-outs stand apart in the source and are kept apart here. Bounds are passed on as bounds.

The results in this text go back to patent US10081647B2, “Phosphate substituted quinolizine derivatives useful as HIV integrase inhibitors” (Merck Sharp & Dohme Corp., priority 2015, dated 2018).

The test deals with HIV-1 (NL4-3 strain). Kind of test: Assay for inhibition of HIV replication (MT4-gag-GFP reporter cell line, kinetic assay). The test is classed as cell-based. The settings on record: IP from 4-parameter dose response curve. How it is done:
This assay is useful for assessing the ability of a compound of the present inventiongin to inhibit HIV replication. The assay is a kinetic assay that employs a reporter cell line (MT4-gag-GFP) to quantify the number of new cells infected in each round of replication.
MT4-GFP cells (250,000 cells/ml) are bulk-infected with HIV-1 (NL4-3 strain) at low multiplicity of infection (MOI) in RPMI+10% FBS for 24 hours. Cells are then washed once in RPMI+10% FBS and resuspended in RPMI+0% or 10% or 100% normal human serum (NHS). Test compounds are serial-diluted in DMSO using an ECHO liquid handler. The infected MT4-GFP cells are added to a 384-well poly-D-lysine coated black plate with clear bottom in which the diluted test compounds are placed. The cells are seeded at 8,000 cells per well and the final DMSO concentration is adjusted to 0.4%. The infected cells (Green GFP cells) are then quantified at both 24 and 48 hours post incubation using Acumen eX3. Viral reproductive ratio (R0) is determined using the number of infected cells at 48 hours divided by the number of infected cells at 24 hours. Percent viral growth inhibition is calculated by [1−(R−Rtripledrug)/(RDMSO−Rtripledrug)]*100. Compound potency IP or IC50 can be determined using a 4-parameter dose response curve analysis.

[1] abbreviates: infected MT4-GFP cells in 100% normal human serum, read-out: WILD TYPE CELL ASSAY Viking IP (100% NHS).
Where [2] appears, read: infected MT4-GFP cells in RPMI + 0% normal human serum, read-out: WILD TYPE CELL ASSAY Viking IP (0% NHS).
Where [3] appears, read: Human immunodeficiency virus 1, NL43, infected MT4-GFP cells in 100% normal human serum, read-out: WILD TYPE CELL ASSAY Viking IP (100% NHS).
[4] abbreviates: Human immunodeficiency virus 1, NL43, infected MT4-GFP cells in RPMI + 0% normal human serum, read-out: WILD TYPE CELL ASSAY Viking IP (0% NHS).

Take `CCOP(=O)(CCOCCC1(C)C(=O)c2c(O)c(=O)c(C(=O)NCc3ccc(F)cc3F)cn2CC1OC)OCC` (stereo not shown) [Compound 57]: the IC50 under setting [1] stood at 84 nM and the IC50 under setting [2] is 7 nM.

Turning to `COCCC1(C)C(=O)c2c(O)c(=O)c(C(=O)NCc3ccc(F)cc3F)cn2CC1OCCP(=O)(OCOC(=O)OC(C)C)OCOC(=O)OC(C)C` (stereo not shown) [Compound 86], the IC50 reads like this: under setting [1], 980 nM; under setting [2], 3.5 nM.

As for `CCOP(=O)(CCCOC1Cn2cc(C(=O)NCc3ccc(F)cc3F)c(=O)c(O)c2C(=O)C1(C)CCOC)OCC` (stereo not shown) [Compound 91], the IC50 runs as follows: under setting [1], 600 nM; under setting [2], 31 nM.

For `COCCC1(C)C(=O)c2c(O)c(=O)c(C(=O)NCc3ccc(F)cc3F)cn2CC1OCCP(=O)(OCOC(=O)OC(C)C)OCOC(=O)OC(C)C` (stereo not shown) [Compound 85], the IC50 is, setting by setting: under setting [1], 7.7 nM; under setting [2], 0.291 nM.

Turning to `CCOP(=O)(CCCOCCC1(C)C(=O)c2c(O)c(=O)c(C(=O)NCc3ccc(F)cc3F)cn2CC1OC)OCC` (stereo not shown) [Compound 44], the IC50 is, setting by setting: under setting [1], 159 nM; under setting [2], 7.2 nM.

`COC1Cn2cc(C(=O)NCc3ccc(F)cc3F)c(=O)c(O)c2C(=O)C1(C)COCCP(=O)(O)O` (stereo not shown) [Compound 39]: the IC50 by setting is: under setting [1], 6930 nM; under setting [2], 337 nM.

In the case of `COC1Cn2cc(C(=O)NCc3ccc(F)cc3F)c(=O)c(O)c2C(=O)C1(C)COCCP(=O)(OCOC(=O)OC(C)C)OCOC(=O)OC(C)C` (stereo not shown) [Compound 43], the IC50 under setting [1] was determined as 1480 nM and the IC50 under setting [2] turned out to be 1.4 nM.

For the compound `CCOP(=O)(CCOCC1(C)C(=O)c2c(O)c(=O)c(C(=O)NCc3ccc(F)cc3F)cn2CC1OC)OCC` (stereo not shown) [Compound 35], the IC50 by setting is: under setting [1], 86 nM; under setting [2], 3.5 nM.

`CCOP(=O)(CCCOC1Cn2cc(C(=O)NCc3ccc(F)cc3F)c(=O)c(O)c2C(=O)C1(C)CCOC)OCC` (stereo not shown) [Compound 89]: the IC50 runs as follows: under setting [1], 211 nM; under setting [2], 15 nM.

In the case of `CCOP(=O)(CCOC1Cn2cc(C(=O)NCc3ccc(F)cc3F)c(=O)c(O)c2C(=O)C1(C)CCOC)OCC` (stereo not shown) [Compound 78], the IC50 is, setting by setting: under setting [1], 580 nM; under setting [2], 17 nM.

With `COC1Cn2cc(C(=O)NCc3ccc(F)cc3F)c(=O)c(O)c2C(=O)C1(C)COCCP(=O)(O)O` (stereo not shown) [Compound 37], the IC50 reads like this: under setting [1], more than 8000 nM; under setting [2], more than 1000 nM.

In the case of `COCCC1(C)C(=O)c2c(O)c(=O)c(C(=O)NCc3ccc(F)cc3F)cn2CC1OCCP(=O)(O)O` (stereo not shown) [Compound 81], the IC50 came to 2120 nM under setting [1] and 665 nM under setting [2].

As to `CC(C)OC(=O)OCOP(=O)(CCCNC1Cn2cc(C(=O)NCc3ccc(F)cc3F)c(=O)c(O)c2C(=O)C1(C)C)OCOC(=O)OC(C)C` (stereo not shown) [Compound 109], the IC50 is, setting by setting: under setting [1], 3520 nM; under setting [2], 38 nM.

As to `CCOP(=O)(CCOCC1(C)C(=O)c2c(O)c(=O)c(C(=O)NCc3ccc(F)cc3F)cn2CC1OC)OCC` (stereo not shown) [Compound 34], the IC50 by setting is: under setting [1], 238 nM; under setting [2], 8.2 nM.

Consider `CC(C)OC(=O)OCOP(=O)(CCOC1Cn2cc(C(=O)NCc3ccc(F)cc3F)c(=O)c(O)c2C(=O)C1(C)C)OCOC(=O)OC(C)C` (stereo not shown) [Compound 70], for which the IC50 by setting is: under setting [1], 2020 nM; under setting [2], 13 nM.

Regarding `CC1(C)C(=O)c2c(O)c(=O)c(C(=O)NCc3ccc(F)cc3F)cn2CC1NCCCP(=O)(O)O` (stereo not shown) [Compound 108], the IC50 came to 1260 nM under setting [3] and 95 nM under setting [4].

As to `CCOP(=O)(CCOCCC1(C)C(=O)c2c(O)c(=O)c(C(=O)NCc3ccc(F)cc3F)cn2CC1OC)OCC` (stereo not shown) [Compound 55], the IC50 is 128 nM under setting [1] and 6.7 nM under setting [2].

On to `CC1(C)C(=O)c2c(O)c(=O)c(C(=O)NCc3ccc(F)cc3F)cn2CC1OCCP(=O)(O)O` (stereo not shown) [Compound 67], for which the IC50 under setting [3] came to 4260 nM and the IC50 under setting [4] was determined as 669 nM.

`COC1Cn2cc(C(=O)NCc3ccc(F)cc3F)c(=O)c(O)c2C(=O)C1(C)CCOCCCP(=O)(O)O` (stereo not shown) [Compound 48]: the IC50 under setting [3] was determined as 6940 nM and the IC50 under setting [4] is 626 nM.

For the compound `CCOP(=O)(CCOC1Cn2cc(C(=O)NCc3ccc(F)cc3F)c(=O)c(O)c2C(=O)C1(C)CCOC)OCC` (stereo not shown) [Compound 77], the IC50 under setting [1] was determined as 128 nM and the IC50 under setting [2] is 5.5 nM.
